Structures are written as SMILES.

In the assay the target is T1, human TLR8 (Homo sapiens, UniProt Q9NR97).
T1 construct: host or cells: HEK293 (HEK-Blue hTLR8)
T1 sequence (Q9NR97 27-1041): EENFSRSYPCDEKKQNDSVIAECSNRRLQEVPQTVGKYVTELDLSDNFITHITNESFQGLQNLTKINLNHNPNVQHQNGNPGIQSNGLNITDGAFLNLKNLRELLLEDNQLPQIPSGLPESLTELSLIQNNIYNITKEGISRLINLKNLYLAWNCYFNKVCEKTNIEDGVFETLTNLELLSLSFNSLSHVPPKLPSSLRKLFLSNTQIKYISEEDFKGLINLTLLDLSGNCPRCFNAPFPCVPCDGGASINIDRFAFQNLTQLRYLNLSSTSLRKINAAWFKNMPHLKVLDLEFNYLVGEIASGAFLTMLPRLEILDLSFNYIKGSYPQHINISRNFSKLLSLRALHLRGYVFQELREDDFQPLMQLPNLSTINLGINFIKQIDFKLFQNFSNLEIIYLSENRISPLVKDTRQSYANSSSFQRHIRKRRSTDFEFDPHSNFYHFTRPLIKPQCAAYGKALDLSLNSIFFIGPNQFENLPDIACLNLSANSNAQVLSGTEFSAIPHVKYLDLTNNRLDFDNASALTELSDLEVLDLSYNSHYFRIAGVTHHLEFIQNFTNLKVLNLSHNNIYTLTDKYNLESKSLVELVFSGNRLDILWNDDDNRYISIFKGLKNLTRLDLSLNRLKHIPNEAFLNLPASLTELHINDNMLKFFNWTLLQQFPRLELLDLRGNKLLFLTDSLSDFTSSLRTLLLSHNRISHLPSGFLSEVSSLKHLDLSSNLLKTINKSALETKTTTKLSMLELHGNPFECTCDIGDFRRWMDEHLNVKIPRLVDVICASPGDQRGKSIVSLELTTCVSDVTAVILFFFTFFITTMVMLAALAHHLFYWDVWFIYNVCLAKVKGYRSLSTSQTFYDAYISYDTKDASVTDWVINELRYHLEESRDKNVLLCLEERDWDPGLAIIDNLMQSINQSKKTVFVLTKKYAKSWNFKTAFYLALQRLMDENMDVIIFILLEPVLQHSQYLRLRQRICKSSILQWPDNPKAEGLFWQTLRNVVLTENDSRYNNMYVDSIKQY
In words: HEK293-Blue-hTLR-8 cells assay. The class given is cell-based. The following applies: HEK293-Blue-hTLR8 cells, R848 stimulation, 20 hrs, SEAP reporter; read-out: HEK/hTLR8 IC50. The source says: HEK293-Blue-hTLR-8 Cells Assay:
A stable HEK293-Blue-hTLR-8 cell line was purchased from InvivoGen (Cat. #: hkb-htlr8, San Diego, Calif., USA). These cells were originally designed for studying the stimulation of human TLR8 by monitoring the activation of NF-κB. A SEAP (secreted embryonic alkaline phosphatase) reporter gene was placed under the control of the IFN-β minimal promoter fused to five NF-κB and AP-1-binding sites. The SEAP was induced by activating NF-κB and AP-1 via stimulating HEK-Blue hTLR8 cells with TLR8 ligands. Therefore the reporter expression was declined by TLR8 antagonist under the stimulation of a ligand, such as R848, for incubation of 20 hrs. The cell culture supernatant SEAP reporter activity was determined using QUANTI-Blue™ kit (Cat. #: rep-qbl, Invivogen, San Diego, Ca, USA) at a wavelength of 640 nm, a detection medium that turns purple or blue in the presence of alkaline phosphatase.
HEK293-Blue-hTLR8 cells were incubated at a density of 250,000˜450,000 cells/mL in a volume of 170 μL in a 96-well plate in Dulbecco's Modified Eagle's medium (DMEM) containing 4.5 g/L glucose, 50 U/mL penicillin, […], […], 2 mM L-glutamine, 10% (v/v) heat-inactivated fetal bovine serum with addition of 20 μL test compound in a serial dilution in the presence of final DMSO at 1% and 10 μL of 60 uM R848 in above DMEM, perform incubation under 37° C. in a CO2 incubator for 20 hrs. Then 20 μL of the supernatant from each well was incubated with 180 μL Quanti-blue substrate solution at 37° C. for 2 hrs and the absorbance was read at 620-655 nm using a spectrophotometer. The signaling pathway that TLR8 activation leads to downstream NF-κB activation has been widely accepted, and therefore similar reporter assay was modified for evaluating TLR8 antagonist.
For the molecule `[2H]c1ccc2c(N3C[C@@H](C)N4Cc5nc(N6CC[C@@](C)(N)C6)ccc5[C@H]4C3)ccc(C#N)c2n1` [Example 7, 5-[(2S,6R)-11-[(3R)-3-amino-3-methyl-pyrrolidin-1-yl]-6-methyl-4,7,10-triazatricyclo[7.4.0.02,7]trideca-1(9),10,12-trien-4-yl]-2-deuterio-quinoline-8-carbonitrile], the IC50 was less than 0.3 nM.
Under `[2H]c1ccc2c(N3C[C@@H](C)N4Cc5nc(N6C[C@@H]7C[C@H]6CN7)ccc5[C@H]4C3)ccc(C#N)c2n1` [Example 16, 2-Deuterio-5-[(2S,6R)-11-[(1S,4S)-2,5-diazabicyclo[2.2.1]heptan-2-yl]-6-methyl-4,7,10-triazatricyclo[7.4.0.02,7]trideca-1(9),10,12-trien-4-yl]quinoline-8-carbonitrile] stands 0.4 nM.
`[2H]c1ccc2c(N3C[C@@H](C)N4Cc5nc(N6CCC7(CC6)CNCCO7)ccc5[C@H]4C3)ccc(C#N)c2n1` [Example 18, 2-Deuterio-5-[(2S,6R)-6-methyl-11-(1-oxa-4,9-diazaspiro[5.5]undecan-9-yl)-4,7,10-triazatricyclo[7.4.0.02,7]trideca-1(9),10,12-trien-4-yl]quinoline-8-carbonitrile]: the IC50 is less than 0.3 nM.
Then `C[C@@H]1CN(c2ccc(C#N)c3ncccc23)C[C@@H]2c3ccc(N4CCCNCC4)nc3CN12` [Example 20, 5-[(2S,6R)-11-(1,4-diazepan-1-yl)-6-methyl-4,7,10-triazatricyclo[7.4.0.02,7]trideca-1(9),10,12-trien-4-yl]quinoline-8-carbonitrile], with less than 0.3 nM; and `[2H]c1ccc2c(N3C[C@@H](C)N4Cc5nc(N6CC[C@H](N)[C@@H](OC)C6)ccc5[C@H]4C3)ccc(C#N)c2n1` [Example 12, 5-[(2S,6R)-11-[(3S,4S)-4-amino-3-methoxy-1-piperidyl]-6-methyl-4,7,10-triazatricyclo[7.4.0.02,7]trideca-1(9),10,12-trien-4-yl]-2-deuterio-quinoline-8-carbonitrile], with less than 0.3 nM.
Then `[2H]c1ccc2c(N3C[C@@H](C)N4Cc5nc(C6CCNCC6)ccc5[C@H]4C3)ccc(C#N)c2n1` [Example 23, 2-Deuterio-5-[(2S,6R)-6-methyl-11-(4-piperidyl)-4,7,10-triazatricyclo[7.4.0.02,7]trideca-1(9),10,12-trien-4-yl]quinoline-8-carbonitrile], with 0.3 nM; and `[2H]c1ccc2c(N3C[C@@H](C)N4Cc5nc(N6CC[C@](C)(N)C6)ccc5[C@H]4C3)ccc(C#N)c2n1` [Example 8, 5-[(2S,6R)-11-[(3S)-3-amino-3-methyl-pyrrolidin-1-yl]-6-methyl-4,7,10-triazatricyclo[7.4.0.02,7]trideca-1(9),10,12-trien-4-yl]-2-deuterio-quinoline-8-carbonitrile], with less than 0.3 nM; and `C[C@@H]1CN(c2ccc(C#N)c3ncccc23)C[C@@H]2c3cnc(N4CCNCC4)cc3CN12` [Example 2, 5-[(2S,6R)-6-methyl-11-piperazin-1-yl-4,7,12-triazatricyclo[7.4.0.02,7]trideca-1(9),10,12-trien-4-yl] quinoline-8-carbonitrile], with 0.4 nM.
For the molecule `CC1(N)CCN(c2ccc3c(n2)CN2CCN(c4ccc(C#N)c5ncccc45)C[C@@H]32)CC1` [Example 4A, 5-[(2R)-11-(4-amino-4-methyl-1-piperidyl)-4,7,10-triazatricyclo[7.4.0.02,7]trideca-1(9),10,12-trien-4-yl]quinoline-8-carbonitrile], the IC50 stood at 1.9 nM.
Under `[2H]c1ccc2c(N3C[C@@H](C)N4Cc5nc(N6CC[C@H](N)[C@H](OC)C6)ccc5[C@H]4C3)ccc(C#N)c2n1` [Example 13, 5-[(2S,6R)-11-[(3R,4S)-4-amino-3-methoxy-1-piperidyl]-6-methyl-4,7,10-triazatricyclo[7.4.0.02,7]trideca-1(9),10,12-trien-4-yl]-2-deuterio-quinoline-8-carbonitrile] stands less than 0.3 nM.
Under `[2H]c1ccc2c(N3C[C@@H](C)N4Cc5nc(N6C[C@H]7C[C@@H]6CN7)ccc5[C@H]4C3)ccc(C#N)c2n1` [Example 17, 2-Deuterio-5-[(2S,6R)-11-[(1R,4R)-2,5-diazabicyclo[2.2.1]heptan-2-yl]-6-methyl-4,7,10-triazatricyclo[7.4.0.02,7]trideca-1(9),10,12-trien-4-yl]quinoline-8-carbonitrile] stands less than 0.3 nM.
For the molecule `C[C@@H]1CN(c2ccc(C#N)c3ncccc23)C[C@@H]2c3ccc(N4CC5CNCC(C4)O5)nc3CN12` [Example 6, 5-[(2S,6R)-6-methyl-11-(9-oxa-3,7-diazabicyclo[3.3.1]nonan-3-yl)-4,7,10-triazatricyclo[7.4.0.02,7]trideca-1(9),10,12-trien-4-yl]quinoline-8-carbonitrile], the IC50 was 2.3 nM.
As for `[2H]c1ccc2c(N3C[C@@H](C)N4Cc5nc(N6CCC7(CNC7)C6)ccc5[C@H]4C3)ccc(C#N)c2n1` [Example 9, 2-Deuterio-5-[(2S,6R)-11-(2,6-diazaspiro[3.4]octan-6-yl)-6-methyl-4,7,10-triazatricyclo[7.4.0.02,7]trideca-1(9),10,12-trien-4-yl]quinoline-8-carbonitrile], the IC50 came out at 0.7 nM.
Regarding `[2H]c1ccc2c(N3C[C@@H](C)N4Cc5nc(OC6CCNCC6)ccc5[C@H]4C3)ccc(C#N)c2n1` [Example 24, 2-Deuterio-5-[(2S,6R)-6-methyl-11-(4-piperidyloxy)-4,7,10-triazatricyclo[7.4.0.02,7]trideca-1(9),10,12-trien-4-yl]quinoline-8-carbonitrile], the IC50 was less than 0.3 nM.
Consider `N#Cc1ccc(N2CCN3Cc4nc(N5CCNCC5)ccc4[C@@H]3C2)c2cccnc12` [Example 3A, 5-[(2R)-11-piperazin-1-yl-4,7,10-triazatricyclo[7.4.0.02,7]trideca-1(9),10,12-trien-4-yl]quinoline-8-carbonitrile], for which the IC50 is 0.5 nM.
Then `C[C@@H]1CN(c2ccc(C#N)n3nccc23)C[C@@H]2c3ccc(N4C[C@@H]5C[C@H]4CN5)nc3CN12` [Example 21, 4-[(2S,6R)-11-[(1S,4S)-2,5-diazabicyclo[2.2.1]heptan-2-yl]-6-methyl-4,7,10-triazatricyclo[7.4.0.02,7]trideca-1(9),10,12-trien-4-yl]pyrazolo[1,5-a]pyridine-7-carbonitrile], with 3.6 nM.
On to `[2H]c1ccc2c(N3C[C@@H](C)N4Cc5nc(N6CCC(C)(N)CC6)ccc5[C@H]4C3)ccc(C#N)c2n1` [Example 19, 5-[(2S,6R)-11-(4-amino-4-methyl-1-piperidyl)-6-methyl-4,7,10-triazatricyclo[7.4.0.02,7]trideca-1(9),10,12-trien-4-yl]-2-deuterio-quinoline-8-carbonitrile], for which the IC50 was less than 0.3 nM.
For `C[C@@H]1CN(c2ccc(C#N)c3ncccc23)C[C@@H]2c3ccc(N4CCNCC4)nc3CN12` [Example 5, 5-[(2S,6R)-6-methyl-11-piperazin-1-yl-4,7,10-triazatricyclo[7.4.0.02,7]trideca-1(9),10,12-trien-4-yl]quinoline-8-carbonitrile], the IC50 was less than 0.3 nM.

For the origin of these results see patent publication US12503471B2, “Triazatricycle compounds for the treatment of autoimmune disease” (Hoffmann-La Roche Inc., priority 2019, dated 2025).
